One assay has as its system exploratory activity. In words: Inhibitory effect on exploratory activity (Animex activity meter). The assay is classed as in vivo, mice (Std-ddy strain). The following applies: oral, 2 h after administration, 3 min counting; dose not given. As to the method:
A group of 5 male mice (Std-ddy strain, 20-25 g) was used. Two hours after oral administration of the test compound, mice were placed individually in a test box (23×35×30 cm) on Animex activity meter (Farad Co.). Immediately thereafter, activity counting was started and lasted for three minutes. The mean counts of the compound-treated group were compared with those of the corresponding control (non-dosed) group, and the percent inhibition was calculated.

For assay [1], the system named is apomorphine-induced vomiting. In words: Antagonistic effect on apomorphine-induced vomiting. It counts as in vivo, dogs (Beagle). The following applies: Canis lupus familiaris, sc, apomorphine 0.3 mg/kg s.c. 2 h after compound, read-out: Inhibitory ratio (apomorphine-induced vomiting). Here is the method: A group of 3-4 dogs (Beagle, 8-15 kg) was used for examining effects on the test compounds on apomorphine-induced vomiting, a known test for evaluating neuroleptic drugs.
Each dog was given a subcutaneous injection of apomorphine hydrochloride (0.3 mg/kg) two hours after the treatment of the test compounds. Then, the frequency of oral vomiting was counted for one hour. The mean counts of the compound-treated group were compared with those of the corresponding control (non-dosed) group, and the percent inhibition was calculated.

Assay [2] relates to brain monoamine metabolites. Kind of assay: Increasing effect on concentration of brain monoamine metabolites. The assay is classed as in vivo, mice (Std-ddy strain). To be noted: Mus musculus, 2 h, non-dosed=100. Here is the method:
A group of 5 male mice (Std-ddy strain, 25-30 g) was used for examining effect of the test compounds on concentration of brain monoamine metabolites.
Mice were killed by decapitation 2 hours after treatment with the test compounds. Brains were quickly taken out, homogenized in 1N formic acid-acetone solution, and centrifuged in a refrigerated ultracentrifuge. The supernatant was evaporated by blowing with N2 gas. Then, the residue was again resolved in 0.01 N acetic acid, and served for determining concentration of dopamine metabolites, 3,4-dihydroxyphenylacetic acid (DOPAC) and homovanillic acid (HVA), a norepinephrine metabolite, 3-methyl-4-hydroxyphenylethylene glycol (MOPEG), and a serotonin metabolite, 5-hydroxyindole-3-acetic acid (5-HIAA) concentrations by HPLC with electrochemical detection. The effect of the test compounds on concentration of each monoamine metabolite is shown as % of control (level of non-dosed animals=100) in Table 4.

The next assay concerns the target T1, serotonin (S2) receptor (Rattus norvegicus, UniProt P14842).
T1 construct: Crude synaptosome fractions were prepared from some brain regions in rats for receptor sources; from tissue
In words: In vitro binding to serotonin (S2) receptor, [3H] ketanserin. The following applies: [3H] ketanserin, rat brain crude synaptosome fraction. Details: species or system rats. As to the method:
(§1) Dopamine (D2), serotonin (S1, S2) and adrenaline (α1) receptor binding assays were carried out according to the methods of I. Creese et al. [Eur. J. Pharmacol., 46, 377 (1977), S. J. Peroutka et al. [Mol. Pharmacol. 16, 687 (1979)], J. E. Leysen et al. [Mol. Pharmacol., 21, 301 (1982)] and D. C. U'Prichard et al. [Mol. Pharmacol., 13, 454 (1977)], respectively.
(§2) Crude synaptosome fractions were prepared from some brain regions in rats for receptor sources. Radioactive ligands used were [^3 H] spiperone (D2), [^3 H] serotonin (S1), [^3 H] ketanserin (S2) and [^3 H] WB-4101 (α1). The binding assay was performed by incubating aliquots of synaptosome fraction in buffer solution (final volume: 1 ml) containing a [^3 H] labelled ligand and a test compound. The assay was terminated by rapid filtration through Whatman GF/B glass fiber filters attached to a cell-harvester (Brandel) and radioactivity on the filters was counted in a Packard Triscarb scintillation counter. Specific binding was calculated as a difference between amounts of radioactivity in the presence and absence of an unlabelled ligand [spiperone (D2), serotonin (S1), methysergide (S2) and prazosin (α1)]. The IC50 value of the test compounds (concentration causing 50% inhibition of [^3 H] ligand specific binding) was determined by probit analysis.

A further assay addresses T2, dopamine (D2) receptor (Rattus norvegicus, UniProt P61169).
T2 construct: Crude synaptosome fractions were prepared from some brain regions in rats for receptor sources; from tissue
Kind of assay: In vitro binding to dopamine (D2) receptor, [3H] spiperone. Details: species or system rats. To be noted: [3H] spiperone, rat brain crude synaptosome fraction; read-out: IC50 D2. As to the method: as §1, §2

Setting [3] is: read-out: 5-HIAA concentration, % of control.
[4] abbreviates: read-out: DOPAC concentration, % of control.
The mark [5] stands for this setting: read-out: HVA concentration, % of control.
The mark [6] stands for this setting: read-out: MOPEG concentration, % of control.

Where two headings read alike, the source gives them in different places.

T2 sequence (P61169 whole entry): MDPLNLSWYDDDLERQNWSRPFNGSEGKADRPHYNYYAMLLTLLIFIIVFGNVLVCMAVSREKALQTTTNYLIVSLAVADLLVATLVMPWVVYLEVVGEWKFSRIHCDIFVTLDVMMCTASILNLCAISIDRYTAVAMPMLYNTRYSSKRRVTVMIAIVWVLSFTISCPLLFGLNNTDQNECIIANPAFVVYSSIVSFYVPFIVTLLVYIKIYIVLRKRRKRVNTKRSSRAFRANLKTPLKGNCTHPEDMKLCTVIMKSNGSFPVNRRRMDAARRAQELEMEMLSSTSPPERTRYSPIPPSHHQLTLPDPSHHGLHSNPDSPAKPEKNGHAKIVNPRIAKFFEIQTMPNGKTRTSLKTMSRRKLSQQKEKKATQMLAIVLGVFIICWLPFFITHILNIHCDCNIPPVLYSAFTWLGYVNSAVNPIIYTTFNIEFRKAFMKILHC
T1 sequence (P14842 whole entry): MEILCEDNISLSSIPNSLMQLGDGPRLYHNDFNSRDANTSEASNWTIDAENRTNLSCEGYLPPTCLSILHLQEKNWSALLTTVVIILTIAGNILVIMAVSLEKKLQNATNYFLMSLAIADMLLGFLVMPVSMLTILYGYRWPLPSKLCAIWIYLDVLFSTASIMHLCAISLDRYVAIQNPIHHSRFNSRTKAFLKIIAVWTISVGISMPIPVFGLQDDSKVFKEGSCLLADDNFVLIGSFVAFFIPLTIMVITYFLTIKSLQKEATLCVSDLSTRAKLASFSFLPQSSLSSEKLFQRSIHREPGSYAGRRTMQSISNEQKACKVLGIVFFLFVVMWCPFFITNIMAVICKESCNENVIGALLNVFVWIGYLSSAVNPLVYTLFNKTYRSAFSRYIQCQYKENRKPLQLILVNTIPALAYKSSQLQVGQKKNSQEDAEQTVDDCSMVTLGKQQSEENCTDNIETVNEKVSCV

As to `CCN1CCN(c2cc(-c3ccc(Cl)cc3)c3c(n2)CCCCC3)CC1` [Example 31], the “Inhibitory ratio (exploratory activity)” value with exploratory activity is given as 62.5%.
Consider `CCN1CCN(c2cc(-c3ccccc3)c3c(n2)CCCCCC3)CC1` [Example 36], for which, in assay [1], the inhibition in vivo at 0.5 mg/kg is 81%. Further, the “Inhibitory ratio (exploratory activity)” value with exploratory activity was found to be 68.4%.
For `Fc1ccc(-c2cc(N3CCN(C4CCCC4)CC3)nc3c2CCCCCC3)cc1` [Example 38], in the assay with exploratory activity, the “Inhibitory ratio (exploratory activity)” value was 58.9%.
`OCCN1CCN(c2cc(-c3ccc(F)cc3F)c3c(n2)CCCCCC3)CC1` [Example 53]: in the assay on exploratory activity, the “Inhibitory ratio (exploratory activity)” value is recorded as 68.1%.
With `CCN1CCN(c2cc(-c3ccc(F)cc3)c3c(n2)CCCCCCC3)CC1` [Example 56], the response vs control in vivo at 10 mg/kg stood at 110% in assay [2] (setting [3]), 302% in assay [2] (setting [4]), 249% in assay [2] (setting [5]) and 106% in assay [2] (setting [6]). For the same molecule, in assay [1], the inhibition in vivo at 0.5 mg/kg was determined as 85%.
Regarding `CCN1CCN(c2cc(-c3ccccc3)c3c(n2)CCC(C)C3)CC1` (stereo not drawn) [Example 57], the “Inhibitory ratio (exploratory activity)” value in the assay on exploratory activity worked out at 77.2%.
Consider `CCN1CCN(c2cc(-c3ccc(F)cc3)c3c(n2)CCC(C)(C)C3)CC1` [Example 66], for which the response vs control in vivo at 2 mg/kg is 116% in assay [2] (setting [3]), 311% in assay [2] (setting [4]), 308% in assay [2] (setting [5]) and 111% in assay [2] (setting [6]). For the same molecule, in assay [1] (dose 1.0 mg/kg), the inhibition in vivo at 1 mg/kg is 95%.
Turning to `CCN1CCN(c2cc(-c3ccc(F)cc3)c3c(n2)C2CCC3CC2)CC1` [Example 75], the “Inhibitory ratio (exploratory activity)” value in the assay with exploratory activity is given as 78.9%.
The same measure, in the same setting: next, `CC1CN(c2cc(-c3ccc(F)cc3)c3c(n2)CCCCCC3)CCN1` (stereo not drawn) [Example 83, 2-(3-Methyl-1-piperazinyl)-4-(4-fluorophenyl)-5,6,7,8,9,10-hexahydrocycloocta[b]pyridine]: 53.5%.
For `c1ccc(-c2cc(N3CCNCC3)nc3c2CCCCCC3)cc1` [Example 103], the IC50 was found to be 0.041 µM on serotonin (S2) receptor and 0.14 µM at dopamine (D2) receptor.
Consider `Fc1ccc(-c2cc(N3CCNCC3)nc3c2CCCCCC3)c(F)c1` [Example 106], for which, in the assay on exploratory activity, the “Inhibitory ratio (exploratory activity)” value turned out to be 74.9%.
On to `c1ccc(-c2cc(N3CCNCC3)nc3c2C2CCC3C2)cc1` (stereo not drawn) [Example 107], for which the “Inhibitory ratio (exploratory activity)” value in the assay with exploratory activity turned out to be 53.2%.
Still for that read-out and setting: as for `CN1CCN(c2cc(-c3ccc(F)cc3)c3c(n2)CCC3)CC1` [Example 111, 2-(4-methyl-1-piperazinyl)-4-(4-fluorophenyl)-6,7-dihydro-5H-1-pyrindine], the figure is 74.0%.
Consider `CN1CCN(c2cc(-c3ccc(F)cc3)c3c(n2)CCCCCC3)CC1.O=C(O)/C=C\C(=O)O.O=C(O)/C=C\C(=O)O` [Example 112, 2-(4-Methyl-1-piperazinyl)-4-(4-fluorophenyl)-5,6,7,8,9,10-hexahydrocycloocta[b]pyridine dimaleate], for which, in assay [1], the inhibition in vivo at 0.2 mg/kg was 94%. The “Inhibitory ratio (exploratory activity)” value in the assay on exploratory activity is 73.2%.
In the same order, the values of `CN1CCN(c2cc(-c3ccc(F)cc3F)c3c(n2)CCCCCC3)CC1` [Example 114, 2-(4-Methyl-1-piperazinyl)-4-(2,4-difluorophenyl)-5,6,7,8,9,10-hexahydrocycloocta[b]pyridine] are 89% and 81.9%.
Consider `CCCN1CCN(c2cc(-c3ccc(F)cc3)c3c(n2)CCCCCC3)CC1` [Example 118, 2-(4-n-propyl-1-piperazinyl)-4-(4-fluorophenyl)-5,6,7,8,9,10-hexahydrocycloocta[b]pyridine], for which the response vs control in vivo at 3 mg/kg in assay [2] (setting [3]) amounted to 110%; in assay [2] (setting [4]), 302%; in assay [2] (setting [5]), 250%; in assay [2] (setting [6]), 129%. Further, the inhibition in vivo at 0.3 mg/kg in assay [1] (dose 0.3 mg/kg) is 94%.
Turning to `CC(C)N1CCN(c2cc(-c3ccc(F)cc3)c3c(n2)CCCCCC3)CC1` [Example 121], the figures for the response vs control in vivo at 10 mg/kg in assay [2] (setting [3]), in assay [2] (setting [4]) and in assay [2] (setting [5]) were 111%, 312% and 215%, respectively. For the same molecule, in assay [1], the inhibition in vivo at 0.5 mg/kg came out at 93%.
`CCCCN1CCN(c2cc(-c3ccc(F)cc3)c3c(n2)CCCCCC3)CC1` [Example 122, 2-(4-n-Butyl-1-piperazinyl)-4-(4-fluorophenyl)-5,6,7,8,9,10-hexahydrocycloocta[b]pyridine]: the response vs control in vivo at 2 mg/kg turned out to be 100% in assay [2] (setting [3]), 306% in assay [2] (setting [4]) and 229% in assay [2] (setting [5]). The inhibition in vivo at 0.5 mg/kg in assay [1] turned out to be 100%. Moreover, the “Inhibitory ratio (exploratory activity)” value in the assay with exploratory activity came to 81.3%.
As for `CCCCCN1CCN(c2cc(-c3ccc(F)cc3)c3c(n2)CCCCCC3)CC1` [Example 123, 2-(4-n-Pentyl-1-piperazinyl)-4-(4-fluorophenyl)-5,6,7,8,9,10-hexahydrocycloocta[b]pyridine], the “Inhibitory ratio (exploratory activity)” value in the assay with exploratory activity is reported as 72.2%.
Same read-out and setting: as for `C=CCN1CCN(c2cc(-c3ccc(F)cc3)c3c(n2)CCCCCC3)CC1` [Example 125], the figure is 57.9%; as for `CCCN1CCN(c2cc(-c3ccc(F)cc3F)c3c(n2)CCCCCC3)CC1` [Example 127, 2-(4-n-propyl-1-piperazinyl)-4-(2,4-difluorophenyl)-5,6,7,8,9,10-hexahydrocycloocta[b]pyridine], 80.3%.
Take `COc1ccc(-c2cc(N3CCN(c4ccccc4)CC3)nc(C)c2-c2ccc(OC)cc2)cc1` [Test Compound B, 4,5-Bis-(4-methoxyphenyl)-6-methyl-2-(4-phenylpiperazino)pyridine, reference compound]: the inhibition in vivo at 3 mg/kg in assay [1] was 13%. The IC50 at dopamine (D2) receptor was above 10 µM.
In the case of `Cc1nc(N2CCN(c3ccccc3)CC2)cc(-c2ccc(O)cc2)c1-c1ccc(O)cc1` [Test Compound C, 4,5-Bis-(4-hydroxyphenyl)-6-methyl-2-(4-phenylpiperazino)pyridine, reference compound], in assay [1], the inhibition in vivo at 3 mg/kg was 16%. For the same molecule, the half-inhibitory concentration (IC50) on dopamine (D2) receptor is above 10 µM.

Source of the values: US5021421A, “2-(1-Piperazinyl)-4-phenylcycloalkanopyridine derivatives, processes for the production thereof, and pharmaceutical composition containing the same” (Dainippon Pharmaceutical Co., Ltd., priority 1989, dated 1991).
